This is an account of results in patent US12252524B2, “GIP/GLP1 co-agonist compounds” (Eli Lilly and Company, priority 2018, dated 2025).

Numbered stars: 1 amine (or outer) side, 2 acyl side, 3 side chain; on linkers, the order of the positions; unused ones are H or OH. Square brackets hold non-standard residues; d marks the D form. Side chains are listed from the residue outwards. Peptide text beside a SMILES is read from it. * marks the point of attachment. C20 diacid = O=C(O)CCCCCCCCCCCCCCCCCCC(=O)*; γGlu = O=C(O)[C@H](CCC(=O)[*:2])N[*:1]; AEEA = NCCOCCOCC(=O)O; Aib = CC(C)(N)C(=O)O

The EC50 is the concentration needed to bring the measured effect to its halfway point. By Ki is commonly meant the equilibrium dissociation constant of an inhibitor or competing ligand from its target.

Experiment [1] concerns the target human GLP-1 receptor (GLP-1R) (Homo sapiens, UniProt P43220). Nature of the experiment: cAMP pharmacological functional assay in presence of casein, hGLP-1R. It is filed as cell-based. Particulars: HEK293 cells expressing hGLP-1R, 0.1% Casein, geometric mean; read-out: hGLP1R cAMP Rel EC50 nM (SEM, n).
Another experiment deals with T1, human Gcg receptor (Homo sapiens, UniProt P47871).
T1 construct: expressed in transfected cells; crude membranes
T1 sequence (P47871 26-477): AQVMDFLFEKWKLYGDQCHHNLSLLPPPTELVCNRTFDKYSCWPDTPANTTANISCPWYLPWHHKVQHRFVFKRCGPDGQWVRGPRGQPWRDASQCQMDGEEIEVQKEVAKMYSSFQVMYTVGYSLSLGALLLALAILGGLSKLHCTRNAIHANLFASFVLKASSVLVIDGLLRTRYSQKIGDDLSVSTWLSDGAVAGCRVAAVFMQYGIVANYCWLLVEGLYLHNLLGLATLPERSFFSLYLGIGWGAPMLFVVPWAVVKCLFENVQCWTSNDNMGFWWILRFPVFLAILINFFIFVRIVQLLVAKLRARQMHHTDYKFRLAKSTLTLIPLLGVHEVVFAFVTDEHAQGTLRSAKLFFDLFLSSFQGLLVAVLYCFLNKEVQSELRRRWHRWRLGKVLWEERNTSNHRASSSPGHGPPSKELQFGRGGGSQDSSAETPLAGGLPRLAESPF
As to the kind of experiment: [125I]-Glucagon binding (SPA), human Gcg receptor. Particulars: read-out: hGLcgR Ki, nM (SEM, n). In a few lines: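 Cell pellets were lysed in hypotonic Tris buffer, pH 7.5, homogenized, and spun at low then high speed to give crude membranes. Ki was derived from the fitted IC50.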

Experiment [2] concerns the target T2, gastric inhibitory peptide receptor (GIPR) (Homo sapiens, UniProt P48546).
T2 sequence (P48546 22-466): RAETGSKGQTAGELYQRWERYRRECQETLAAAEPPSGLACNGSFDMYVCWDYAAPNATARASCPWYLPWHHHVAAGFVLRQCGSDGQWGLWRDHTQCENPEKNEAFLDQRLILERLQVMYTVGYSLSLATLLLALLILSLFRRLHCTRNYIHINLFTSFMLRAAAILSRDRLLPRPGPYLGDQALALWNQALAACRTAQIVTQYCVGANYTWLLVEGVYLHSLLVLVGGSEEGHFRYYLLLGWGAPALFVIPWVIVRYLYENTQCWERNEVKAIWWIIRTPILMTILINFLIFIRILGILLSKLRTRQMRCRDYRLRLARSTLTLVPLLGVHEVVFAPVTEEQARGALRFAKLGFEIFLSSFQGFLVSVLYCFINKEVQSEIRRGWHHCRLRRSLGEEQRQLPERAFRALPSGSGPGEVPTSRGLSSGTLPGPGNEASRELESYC
As to the kind of experiment: cAMP pharmacological functional assay in presence of casein, hGIPR. It is filed as cell-based. Particulars: HEK293 cells expressing hGIPR, 0.1% Casein, geometric mean; read-out: hGIPR cAMP Rel EC50 nM (SEM, n).

The target in another experiment is T3, human GIP receptor (Homo sapiens, UniProt P48546).
T3 construct: expressed in transfected cells; crude membranes
T3 sequence (P48546 22-466): T2 sequence (P48546 22-466)
As to the kind of experiment: [125I]-GIP binding (SPA), human GIP receptor. Particulars: read-out: hGIPR Ki, nM (SEM, n).

The target in a further experiment is human GLP-1R (Homo sapiens, UniProt P43220). Nature of the experiment: [125I]-GLP-1 binding (SPA), human GLP-1 receptor. Further details: expressed in transfected cells; crude membranes. Particulars: read-out: hGLP1R Ki, (nM) (SEM, n). In a few lines:
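Membranes: hypotonic lysis (50 mM Tris HCl, pH 7.5, protease inhibitors), Potter-Elvehjem homogenization, high-speed pellet (35000×g 1 h or 25000×g 30 min, 4° C.). Buffer: 25 mM HEPES pH 7.4, 2.5 mM CaCl2, 1 mM MgCl2. Four-parameter IC50 fit; Ki as geometric mean ± SEM.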

Sequence of human GLP-1 receptor (GLP-1R) (P43220 24-463): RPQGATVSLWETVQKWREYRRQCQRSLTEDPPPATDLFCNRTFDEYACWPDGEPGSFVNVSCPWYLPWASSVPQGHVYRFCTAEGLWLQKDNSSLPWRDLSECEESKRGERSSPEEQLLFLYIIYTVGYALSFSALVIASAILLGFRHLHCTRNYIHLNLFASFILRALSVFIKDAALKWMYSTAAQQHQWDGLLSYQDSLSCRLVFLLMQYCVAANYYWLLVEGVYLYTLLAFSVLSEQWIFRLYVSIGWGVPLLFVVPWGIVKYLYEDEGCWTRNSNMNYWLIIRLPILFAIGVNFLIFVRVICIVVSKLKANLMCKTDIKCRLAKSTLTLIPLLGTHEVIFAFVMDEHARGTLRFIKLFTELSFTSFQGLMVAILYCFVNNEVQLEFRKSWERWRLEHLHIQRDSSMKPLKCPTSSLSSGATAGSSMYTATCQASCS
Sequence of human GLP-1R (P43220 24-463): as above

As for `CC[C@H](C)[C@H](NC(=O)[C@H](CCCCN)NC(=O)[C@H](CC(=O)O)NC(=O)[C@H](CC(C)C)NC(=O)[C@H](CC(C)C)NC(=O)[C@@H](NC(=O)[C@H](CO)NC(=O)[C@H](Cc1ccc(O)cc1)NC(=O)[C@H](CC(=O)O)NC(=O)[C@H](CO)NC(=O)[C@@H](NC(=O)[C@H](Cc1ccccc1)NC(=O)[C@@H](NC(=O)CNC(=O)[C@H](CCC(=O)O)NC(=O)C(C)(C)NC(=O)[C@@H](N)Cc1ccc(O)cc1)[C@@H](C)O)[C@@H](C)O)[C@@H](C)CC)C(=O)N[C@@H](C)C(=O)N[C@@H](CCC(N)=O)C(=O)NC(C)(C)C(=O)N[C@@H](C)C(=O)N[C@@H](Cc1ccccc1)C(=O)N[C@H](C(=O)N[C@@H](CCCCNC(=O)COCCOCCNC(=O)COCCOCCNC(=O)CC[C@H](NC(=O)CCCCCCCCCCCCCCCCCCC(=O)O)C(=O)O)C(=O)N[C@@H](Cc1ccc(O)cc1)C(=O)N[C@@H](CC(C)C)C(=O)N[C@H](C(=O)N[C@@H](CCC(=O)O)C(=O)NCC(=O)NCC(=O)N1CCC[C@H]1C(=O)N[C@@H](CO)C(=O)N[C@@H](CO)C(=O)NCC(=O)N[C@@H](C)C(=O)N1CCC[C@H]1C(=O)N1CCC[C@H]1C(=O)N1CCC[C@H]1C(=O)N[C@@H](CO)C(N)=O)[C@@H](C)CC)[C@@H](C)CC` [Example 34] (H-Y[Aib]EGTFTSDYSILLDKIAQ[Aib]AFIK([AEEA-AEEA-γGlu-C20 diacid])YLIEGGPSSGAPPPS-NH2), the figures for the EC50 in experiment [1] and in experiment [2] were 1.56 nM and 0.36 nM, respectively. Moreover, the values for the Ki on human Gcg receptor, at human GIP receptor and on human GLP-1R were 134 nM, 0.0467 nM and 3.41 nM, respectively.
For `CC[C@H](C)[C@H](NC(=O)[C@H](CCCCN)NC(=O)[C@H](CC(=O)O)NC(=O)[C@H](CC(C)C)NC(=O)[C@H](CC(C)C)NC(=O)[C@@H](NC(=O)[C@H](CO)NC(=O)[C@H](Cc1ccc(O)cc1)NC(=O)[C@H](CC(=O)O)NC(=O)[C@H](CO)NC(=O)[C@@H](NC(=O)[C@H](Cc1ccccc1)NC(=O)[C@@H](NC(=O)CNC(=O)[C@H](CCC(=O)O)NC(=O)C(C)(C)NC(=O)[C@@H](N)Cc1ccc(O)cc1)[C@@H](C)O)[C@@H](C)O)[C@@H](C)CC)C(=O)N[C@@H](C)C(=O)N[C@@H](CCC(N)=O)C(=O)NC(C)(C)C(=O)N[C@@H](C)C(=O)N[C@@H](Cc1ccccc1)C(=O)N[C@H](C(=O)N[C@@H](CCC(=O)O)C(=O)N[C@@H](Cc1ccc(O)cc1)C(=O)N[C@@H](CCCCNC(=O)COCCOCCNC(=O)COCCOCCNC(=O)CC[C@H](NC(=O)CCCCCCCCCCCCCCCCCCC(=O)O)C(=O)O)C(=O)N[C@H](C(=O)N[C@@H](CCC(=O)O)C(=O)NCC(=O)NCC(=O)N1CCC[C@H]1C(=O)N[C@@H](CO)C(=O)N[C@@H](CO)C(=O)NCC(=O)N[C@@H](C)C(=O)N1CCC[C@H]1C(=O)N1CCC[C@H]1C(=O)N1CCC[C@H]1C(=O)N[C@@H](CO)C(N)=O)[C@@H](C)CC)[C@@H](C)CC` [Example 35] (H-Y[Aib]EGTFTSDYSILLDKIAQ[Aib]AFIEYK([AEEA-AEEA-γGlu-C20 diacid])IEGGPSSGAPPPS-NH2), in that order: 8.38 nM, 0.0905 nM, above 964 nM, 0.0358 nM and 54.6 nM.
For `CC[C@H](C)[C@H](NC(=O)[C@H](CCCCN)NC(=O)[C@H](CC(=O)O)NC(=O)[C@H](CC(C)C)NC(=O)[C@H](CC(C)C)NC(=O)[C@@H](NC(=O)[C@H](CO)NC(=O)[C@H](Cc1ccc(O)cc1)NC(=O)[C@H](CC(=O)O)NC(=O)[C@H](CO)NC(=O)[C@@H](NC(=O)[C@H](Cc1ccccc1)NC(=O)[C@@H](NC(=O)CNC(=O)[C@H](CCC(=O)O)NC(=O)C(C)(C)NC(=O)[C@@H](N)Cc1ccc(O)cc1)[C@@H](C)O)[C@@H](C)O)[C@@H](C)CC)C(=O)N[C@@H](C)C(=O)N[C@@H](CCC(N)=O)C(=O)NC(C)(C)C(=O)N[C@@H](C)C(=O)N[C@@H](Cc1ccccc1)C(=O)N[C@H](C(=O)N[C@@H](CCC(=O)O)C(=O)N[C@@H](Cc1ccc(O)cc1)C(=O)N[C@@H](CC(C)C)C(=O)N[C@@H](CCCCNC(=O)COCCOCCNC(=O)COCCOCCNC(=O)CC[C@H](NC(=O)CCCCCCCCCCCCCCCCCCC(=O)O)C(=O)O)C(=O)N[C@@H](CCC(=O)O)C(=O)NCC(=O)NCC(=O)N1CCC[C@H]1C(=O)N[C@@H](CO)C(=O)N[C@@H](CO)C(=O)NCC(=O)N[C@@H](C)C(=O)N1CCC[C@H]1C(=O)N1CCC[C@H]1C(=O)N1CCC[C@H]1C(=O)N[C@@H](CO)C(N)=O)[C@@H](C)CC` [Example 36] (H-Y[Aib]EGTFTSDYSILLDKIAQ[Aib]AFIEYLK([AEEA-AEEA-γGlu-C20 diacid])EGGPSSGAPPPS-NH2), in that order: 2.29 nM, 0.309 nM, 413 nM, 0.141 nM and 16.4 nM.
For `CC[C@H](C)[C@H](NC(=O)[C@H](CCCCN)NC(=O)[C@H](CC(=O)O)NC(=O)[C@H](CC(C)C)NC(=O)[C@H](CC(C)C)NC(=O)[C@@H](NC(=O)[C@H](CO)NC(=O)[C@H](Cc1ccc(O)cc1)NC(=O)[C@H](CC(=O)O)NC(=O)[C@H](CO)NC(=O)[C@@H](NC(=O)[C@H](Cc1ccccc1)NC(=O)[C@@H](NC(=O)CNC(=O)[C@H](CCC(=O)O)NC(=O)C(C)(C)NC(=O)[C@@H](N)Cc1ccc(O)cc1)[C@@H](C)O)[C@@H](C)O)[C@@H](C)CC)C(=O)N[C@@H](C)C(=O)N[C@@H](CCC(N)=O)C(=O)NC(C)(C)C(=O)N[C@@H](C)C(=O)N[C@@H](Cc1ccccc1)C(=O)N[C@H](C(=O)N[C@@H](CCC(=O)O)C(=O)N[C@@H](Cc1ccc(O)cc1)C(=O)N[C@@H](CC(C)C)C(=O)N[C@H](C(=O)N[C@@H](CCCCNC(=O)COCCOCCNC(=O)COCCOCCNC(=O)CC[C@H](NC(=O)CCCCCCCCCCCCCCCCCCC(=O)O)C(=O)O)C(=O)NCC(=O)NCC(=O)N1CCC[C@H]1C(=O)N[C@@H](CO)C(=O)N[C@@H](CO)C(=O)NCC(=O)N[C@@H](C)C(=O)N1CCC[C@H]1C(=O)N1CCC[C@H]1C(=O)N1CCC[C@H]1C(=O)N[C@@H](CO)C(N)=O)[C@@H](C)CC)[C@@H](C)CC` [Example 37] (H-Y[Aib]EGTFTSDYSILLDKIAQ[Aib]AFIEYLIK([AEEA-AEEA-γGlu-C20 diacid])GGPSSGAPPPS-NH2), in that order: 1.15 nM, 0.269 nM, 255 nM, 0.0523 nM and 3.84 nM.
As for `CC[C@H](C)[C@H](NC(=O)[C@H](CCCCN)NC(=O)[C@H](CC(=O)O)NC(=O)[C@H](CC(C)C)NC(=O)[C@H](CC(C)C)NC(=O)[C@@H](NC(=O)[C@H](CO)NC(=O)[C@H](Cc1ccc(O)cc1)NC(=O)[C@H](CC(=O)O)NC(=O)[C@H](CO)NC(=O)[C@@H](NC(=O)[C@H](Cc1ccccc1)NC(=O)[C@@H](NC(=O)CNC(=O)[C@H](CCC(=O)O)NC(=O)C(C)(C)NC(=O)[C@@H](N)Cc1ccc(O)cc1)[C@@H](C)O)[C@@H](C)O)[C@@H](C)CC)C(=O)N[C@@H](C)C(=O)N[C@@H](CCC(N)=O)C(=O)NC(C)(C)C(=O)N[C@@H](C)C(=O)N[C@@H](Cc1ccccc1)C(=O)N[C@H](C(=O)N[C@@H](CCC(=O)O)C(=O)N[C@@H](Cc1ccc(O)cc1)C(=O)N[C@@H](CC(C)C)C(=O)N[C@H](C(=O)N[C@@H](CCC(=O)O)C(=O)N[C@@H](CCCCNC(=O)COCCOCCNC(=O)COCCOCCNC(=O)CC[C@H](NC(=O)CCCCCCCCCCCCCCCCCCC(=O)O)C(=O)O)C(=O)NCC(=O)N1CCC[C@H]1C(=O)N[C@@H](CO)C(=O)N[C@@H](CO)C(=O)NCC(=O)N[C@@H](C)C(=O)N1CCC[C@H]1C(=O)N1CCC[C@H]1C(=O)N1CCC[C@H]1C(=O)N[C@@H](CO)C(N)=O)[C@@H](C)CC)[C@@H](C)CC` [Example 38] (H-Y[Aib]EGTFTSDYSILLDKIAQ[Aib]AFIEYLIEK([AEEA-AEEA-γGlu-C20 diacid])GPSSGAPPPS-NH2), the EC50 in experiment [1] stood at 2.82 nM; in experiment [2], 0.147 nM. Further, the values for the Ki at human Gcg receptor, at human GIP receptor and on human GLP-1R were above 974 nM, 0.104 nM and 31.3 nM, respectively.
